Results as given in patent EP4707280A1, “1,4-CINEOLE DERIVATIVE AND INTERMEDIATE THEREOF, HERBICIDE CONTAINING SAID DERIVATIVE AS ACTIVE INGREDIENT, METHOD FOR USING HERBICIDE, AND METHOD FOR PREPARING AGROCHEMICAL COMPOSITION” (HOKKO CHEMICAL INDUSTRY CO., LTD., priority 2023, dated 2024).

How the values were obtained:
Format in all cases: in vivo
[1] = tested on: Echinochloa crus-galli var. formosensis; experiment: Test Example 1: herbicidal effect test by soil application in paddy rice; conditions: 120 g active ingredient per 10 ares, applied immediately after sowing, flooded pots, 14 days after application; for pest or weed control at 1200 g/ha: Echinochloa crus-galli, soil, 336 h, read-out: weed inhibition rate
Outline: (§1)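 Paddy soil in Wagner pots (1/10,000 acre) was fertilized (N:P:K 16:16:16) and puddled, then weed seeds were sown 0–1 cm deep, 30 each. Pots were flooded to ~3 cm and kept in a glass greenhouse. Emulsifiable concentrate diluted in water was dropped on immediately after sowing at 120 g a.i. per 10 ares.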

Scirpus juncoides [2] = experiment: as above; conditions: Schoenoplectiella juncoides, soil, 336 h; 120 g active ingredient per 10 ares; applied immediately after sowing, flooded pots; 14 days after application; read-out: weed inhibition rate
Outline: as §1

[3] = tested on: Echinochloa crus-galli var. formosensis; experiment: Test Example 2: herbicidal effect test by application during growth period of paddy rice; conditions: 120 g per 10 ares, applied seven days after sowing, flooded pots, 14 days after application; for inhibition at 1200 g/ha: Echinochloa crus-galli, read-out: weed inhibition rate
Outline: (§2)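 Flooded paddy pot test, greenhouse. Seeds 30/species, 0–1 cm depth, water ~3 cm. EC diluted in water, dropper-applied 7 d post-sowing at 120 g a.i./10 a. Inhibition rate (%) read 14 d after treatment; n=2.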

Scirpus juncoides [4] = experiment: as above; conditions: Schoenoplectiella juncoides; 120 g per 10 ares; applied seven days after sowing, flooded pots; 14 days after application; read-out: weed inhibition rate
Outline: as §2

[5] = tested on: Echinochloa crus-galli var. formosensis; experiment: Test Example 5: herbicidal effect test by soil application in paddy rice (low dose); conditions: 7.5 g per 10 ares, applied immediately after sowing, flooded pots, 14 days after application; for inhibition at 75 g/ha: Echinochloa crus-galli, soil, 336 h, read-out: weed inhibition rate
Procedure: (§3) The present test was conducted in duplicate for each chemical concentration group, and the weed inhibition rate (%) was determined 14 days after chemical application using the following formula (Math. 1). [formula]
Wagner pots with an area of […] were filled with paddy soil, followed by addition of water and incorporation of chemical fertilizer (N:P:K = 16:16:16), after which puddling was performed. After that, seeds of Echinochloa crus-galli var. formosensis, broad-leaved weeds (Monochoria vaginalis), and Scirpus juncoides were sown at a depth of 0 cm to 1 cm, 30 seeds each. Immediately after sowing, the pots were flooded and a water depth of approximately 3 cm was maintained. Subsequent management was conducted in a glass greenhouse. Immediately thereafter, an emulsifiable concentrate prepared according to Formulation Example 5 using the compound shown below was diluted with water, and a specified amount of the diluted solution was applied by dropper. The amount of the active ingredient to be applied was equivalent to 7.5 g per 10 ares. […]

[6] = tested on: Echinochloa crus-galli var. formosensis; experiment: Test Example 6: herbicidal effect test by application during growth period of paddy rice (low dose); conditions: 7.5 g per 10 ares, applied seven days after sowing, flooded pots, 14 days after application; for inhibition at 75 g/ha: Echinochloa crus-galli, read-out: weed inhibition rate
Procedure: as §3
Wagner pots with an area of […] were filled with paddy soil, followed by addition of water and incorporation of chemical fertilizer (N:P:K = 16:16:16), after which puddling was performed. After that, seeds of Echinochloa crus-galli var. formosensis, broad-leaved weeds (Monochoria vaginalis), and Scirpus juncoides were sown at a depth of 0 cm to 1 cm, 30 seeds each. Immediately after sowing, the pots were flooded and a water depth of approximately 3 cm was maintained. Subsequent management was conducted in a glass greenhouse. Seven days after sowing, an emulsifiable concentrate prepared according to Formulation Example 5 using the compound shown below was diluted with water, and a specified amount of the diluted solution was applied by dropper. The amount of the active ingredient to be applied was equivalent to 7.5 g per 10 ares. The test was conducted in duplicate for each chemical concentration group, and the herbicidal effect was evaluated 14 days after chemical application using the same criteria as in Test Example 1.

Digitaria ciliaris [7] = experiment: Test Example 3: herbicidal effect test by soil application in upland field; conditions: Digitaria ciliaris, 120 g per 10 ares, sprayed one day after sowing, 14 days after application, read-out: weed inhibition rate
Outline: (§4)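 Pre-emergence test: seeds mixed into top 1 cm of alluvial loam upland soil in pots; emulsifiable concentrate diluted in water sprayed on soil one day after sowing at 100 L/10 a, 120 g a.i./10 a. Weed inhibition rate (%) scored at 14 days, in duplicate.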

Echinochloa crus-galli [8] = experiment: as above; conditions: Echinochloa crus-galli, 120 g per 10 ares, sprayed one day after sowing, 14 days after application, read-out: weed inhibition rate
Outline: as §4

Digitaria ciliaris [9] = experiment: Test Example 4: herbicidal effect test by stem and leaf treatment in upland field; conditions: Digitaria ciliaris; 120 g per 10 ares; sprayed seven days after sowing, upland soil; 14 days after application; read-out: weed inhibition rate
Echinochloa crus-galli [10] = experiment: as above; conditions: Echinochloa crus-galli; 120 g per 10 ares; sprayed seven days after sowing, upland soil; 14 days after application; read-out: weed inhibition rate

CC(C)[C@]12CC(OCc3ccccc3OC(F)(F)F)[C@](C)(C[C@@H]1Cl)O2 (mixture of isomers) [1-627, (1R,2S,4S,SR)-2-chloro-1-isopropyl-4-methyl-5-[[2-(trifluoromethoxy)phenyl]methoxy]-7-oxabicyclo[2.2.1]heptane]
≥ 80%: pest or weed control at 1200 g/ha [1] | pest or weed control at 1200 g/ha (Scirpus juncoides [2]) | inhibition at 1200 g/ha [3] | inhibition at 1200 g/ha (Scirpus juncoides [4])

CC(=O)O[C@@H]1C[C@]2(C)O[C@@]1(C(C)C)C[C@H]2OCc1ccccc1F [1-932, [(1R,2R,4S,5R)-5-[(2-fluorophenyl)methoxy]-4-methyl-1-isopropyl-7-oxabicyclo[2.2.1]heptan-2-yl]acetate]
≥ 80%: weed inhibition rate [1] | weed inhibition rate [3] | weed inhibition rate [5] | weed inhibition rate [6]

CC(C)[C@]12C[C@@H](OCC3CCCCC3)[C@](C)(C[C@@H]1Br)O2 [1-676, (1S,2R,4R,5S)-5-bromo-2-(cyclohexylmethoxy)-1-methyl-4-isopropyl-7-oxabicyclo[2.2.1]heptane]
≥ 80%: pest or weed control at 1200 g/ha [1] | pest or weed control at 1200 g/ha (Scirpus juncoides [2]) | inhibition at 1200 g/ha [3] | inhibition at 1200 g/ha (Digitaria ciliaris [7]) | inhibition at 1200 g/ha (Echinochloa crus-galli [8]) | inhibition at 1200 g/ha (Digitaria ciliaris [9]) | inhibition at 1200 g/ha (Echinochloa crus-galli [10]) | inhibition at 75 g/ha [5] | inhibition at 75 g/ha [6]

CC(C)C12CC(OCc3ccccc3OC(F)(F)F)C(C)(CC1I)O2 (stereo not drawn) [1-1418, 2-iodo-1-isopropyl-4-methyl-5-[[2-(trifluoromethoxy)phenyl]methoxy]-7-oxabicyclo[2.2.1]heptane]
≥ 80%: pest or weed control at 1200 g/ha [1] | pest or weed control at 1200 g/ha (Scirpus juncoides [2]) | inhibition at 1200 g/ha [3] | inhibition at 1200 g/ha (Scirpus juncoides [4])

COC(=O)c1ccccc1COC1CC2(C(C)C)OC1(C)CC2I (stereo not drawn) [1-1442, methyl 2-[(5-iodo-4-isopropyl-1-methyl-7-oxabicyclo[2.2.1]heptan-2-yl)oxymethyl]benzoate]
≥ 80%: pest or weed control at 1200 g/ha (Scirpus juncoides [2]) | inhibition at 1200 g/ha (Scirpus juncoides [4])

COC(=O)c1ccccc1COC1CC2(C(C)C)OC1(C)CC2Cl (stereo not drawn) [1-1310, methyl 2-[(5-chloro-4-isopropyl-1-methyl-7-oxabicyclo[2.2.1]heptan-2-yl)oxymethyl]benzoate]
≥ 80%: pest or weed control at 1200 g/ha (Scirpus juncoides [2]) | inhibition at 1200 g/ha (Scirpus juncoides [4])

CCCCCCO[C@@H]1C[C@]2(C(C)C)O[C@@]1(C)C[C@@H]2Br [1-669, (1S,2R,4R,5S)-5-bromo-2-hexoxy-1-methyl-4-isopropyl-7-oxabicyclo[2.2.1]heptane]
≥ 80%: pest or weed control at 1200 g/ha [1] | inhibition at 1200 g/ha [3] | inhibition at 1200 g/ha (Scirpus juncoides [4]) | inhibition at 1200 g/ha (Digitaria ciliaris [7]) | inhibition at 1200 g/ha (Echinochloa crus-galli [8]) | inhibition at 1200 g/ha (Digitaria ciliaris [9]) | inhibition at 1200 g/ha (Echinochloa crus-galli [10])

Cc1noc(C)c1COC1CC2(C(C)C)OC1(C)CC2Cl (stereo not drawn) [1-1325, 4-[(5-chloro-4-isopropyl-1-methyl-7-oxabicyclo[2.2.1]heptan-2-yl)oxymethyl]-3,5-dimethyl-isoxazole]
≥ 80%: pest or weed control at 1200 g/ha [1] | pest or weed control at 1200 g/ha (Scirpus juncoides [2]) | inhibition at 1200 g/ha [3] | inhibition at 1200 g/ha (Scirpus juncoides [4])

CC(C)[C@]12C[C@@H](OCc3ccccc3F)[C@](C)(CC1c1ccsc1)O2 (stereo partly drawn) [1-928, (1S,2R,4R)-2-((2-fluorobenzyl)oxy)-4-isopropyl-1-methyl-5-(thiophen-3-yl)-7-oxabicyclo[2.2.1]heptane]
≥ 80%: pest or weed control at 1200 g/ha [1] | inhibition at 1200 g/ha [3] | inhibition at 1200 g/ha (Digitaria ciliaris [9]) | inhibition at 1200 g/ha (Echinochloa crus-galli [10]) | inhibition at 75 g/ha [5] | inhibition at 75 g/ha [6]

CC(C)[C@]12C[C@@H](OCc3cccnc3)[C@](C)(C[C@@H]1I)O2 [1-786, 3-[[(1S,2R,4R,5S)-5-iodo-4-isopropyl-1-methyl-7-oxabicyclo[2.2.1]heptan-2-yl]oxymethyl]pyridine]
≥ 80%: pest or weed control at 1200 g/ha (Scirpus juncoides [2]) | inhibition at 1200 g/ha (Scirpus juncoides [4])

CC(C)[C@]12C[C@@H](OCc3ccccc3C(F)(F)F)[C@](C)(C[C@@H]1Cl)O2 [1-640, (1R,2S,4S,5R)-2-chloro-1-isopropyl-4-methyl-5-[[2-(trifluoromethyl)phenyl]methoxy]-7-oxabicyclo[2.2.1]heptane]
≥ 80%: pest or weed control at 1200 g/ha [1] | pest or weed control at 1200 g/ha (Scirpus juncoides [2]) | inhibition at 1200 g/ha [3] | inhibition at 1200 g/ha (Scirpus juncoides [4])

CC(C)[C@]12C[C@@H](OCc3ccccc3C(F)(F)F)[C@](C)(C[C@@H]1I)O2 [1-765, (1R,2S,4S,5R)-2-iodo-1-isopropyl-4-methyl-5-[[2-(trifluoromethyl)phenyl]methoxy]-7-oxabicyclo[2.2.1]heptane]
≥ 80%: pest or weed control at 1200 g/ha [1] | pest or weed control at 1200 g/ha (Scirpus juncoides [2]) | inhibition at 1200 g/ha [3] | inhibition at 1200 g/ha (Scirpus juncoides [4])

CC(C)C12CC(OCc3ccccc3C(F)(F)F)C(C)(CC1Cl)O2 (stereo not drawn) [1-1301, 5-chloro-1-methyl-4-isopropyl-2-[[2-(trifluoromethyl)phenyl]methoxy]-7-oxabicyclo[2.2.1]heptane]
≥ 80%: pest or weed control at 1200 g/ha [1] | pest or weed control at 1200 g/ha (Scirpus juncoides [2]) | inhibition at 1200 g/ha [3] | inhibition at 1200 g/ha (Scirpus juncoides [4])

Cc1noc(C)c1CO[C@@H]1C[C@]2(C(C)C)O[C@@]1(C)C[C@@H]2Br [1-723, 4-[[(1S,2R,4R,5S)-5-bromo-1-methyl-4-isopropyl-7-oxabicyclo[2.2.1]heptan-2-yl]oxymethyl]-3,5-dimethyl-1,2-oxazole]
≥ 80%: pest or weed control at 1200 g/ha [1] | inhibition at 1200 g/ha [3] | inhibition at 75 g/ha [5] | inhibition at 75 g/ha [6]

CC(C)C12CC(OCc3ccncc3)C(C)(CC1Cl)O2 (stereo not drawn) [1-1322, 4-[(5-chloro-4-isopropyl-1-methyl-7-oxabicyclo[2.2.1]heptan-2-yl)oxymethyl]pyridine]
≥ 80%: pest or weed control at 1200 g/ha (Scirpus juncoides [2]) | inhibition at 1200 g/ha (Scirpus juncoides [4])

CC(C)C12CC(OCc3cccnc3)C(C)(CC1Cl)O2 (stereo not drawn) [1-1321, 3-[(5-chloro-4-isopropyl-1-methyl-7-oxabicyclo[2.2.1]heptan-2-yl)oxymethyl]pyridine]
≥ 80%: pest or weed control at 1200 g/ha (Scirpus juncoides [2]) | inhibition at 1200 g/ha (Scirpus juncoides [4])

Cc1ccccc1CO[C@@H]1C[C@]2(C(C)C)O[C@@]1(C)CC2c1ccccc1 (stereo partly drawn) [1-313, (1S,2R,4R)-4-isopropyl-1-methyl-2-((2-methylbenzyl)oxy)-5-phenyl-7-oxabicyclo[2.2.1]heptane]
≥ 80%: pest or weed control at 1200 g/ha [1] | inhibition at 1200 g/ha [3] | inhibition at 1200 g/ha (Echinochloa crus-galli [8]) | inhibition at 1200 g/ha (Echinochloa crus-galli [10]) | inhibition at 75 g/ha [5] | inhibition at 75 g/ha [6]

COC(=O)c1ccccc1CO[C@H]1C[C@@]2(C(C)C)O[C@]1(C)C[C@H]2I [1-1115, methyl 2-[[(1R,2S,4S,5R)-5-iodo-1-methyl-4-isopropyl-7-oxabicyclo[2.2.1]heptan-2-yl]oxymethyl]benzoate]
≥ 80%: pest or weed control at 1200 g/ha (Scirpus juncoides [2]) | inhibition at 1200 g/ha (Scirpus juncoides [4])
